Each structure is given as a SMILES string. Counter-ions that a name gives are not always drawn. Like-named read-outs stand apart in the source and are kept apart here.

For series [1] the following is noted: high-temperature and high-humidity conditions. On the procedure: Influencing factor stability study: Samples of the free-state form were taken, spread in open containers, and left to stand under high-temperature (40° C. and 60° C.) and high-humidity (RH 75% and RH 92.5%) conditions for 30 days to study its stability.
Influencing factor stability study of salt forms: Samples of the salt forms were taken, spread in open containers, and left to stand under high-temperature (40° C. and 60° C.) and high-humidity (RH 75%) conditions for 30 days to study their stability.

The procedure of series [2]: Long-term/accelerated stability study: Samples of the free-state form were sealed in aluminum foil bags and left to stand under 25° C./60% RH and 40° C./75% RH conditions to study its stability.
Long-term/accelerated stability of salt forms: Samples were sealed in aluminum foil bags and left to stand under 25° C./60% RH and 40° C./75% RH conditions to study their stability.

This is another data set of the same source.
Setting [3] is: long-term accelerated conditions for 6 months.

With `C[C@H]1CC2(CCN(c3ccc(C(=O)N4CCC(CN5CCN(c6cccc(N[C@H]7CCC(=O)NC7=O)c6)CC5)CC4)cc3F)CC2)CN1c1ccc(C#N)c(Cl)c1` [free-state amorphous form], the “stability (in words)” value was “good chemical stability” in series [1]; “good physical and chemical stability” in series [2] (setting [3]).
Consider `C[C@H]1CC2(CCN(c3ccc(C(=O)N4CCC(CN5CCN(c6cccc(N[C@H]7CCC(=O)NC7=O)c6)CC5)CC4)cc3F)CC2)CN1c1ccc(C#N)c(Cl)c1` [Amorphous form of maleate], for which the “stability (in words)” value in series [2] (long-term conditions for 6 months) is “good chemical and physical stability”.
With `C[C@H]1CC2(CCN(c3ccc(C(=O)N4CCC(CN5CCN(c6cccc(N[C@H]7CCC(=O)NC7=O)c6)CC5)CC4)cc3F)CC2)CN1c1ccc(C#N)c(Cl)c1` [Crystal form B of succinate], the “stability (in words)” value in series [2] (setting [3]) is “good chemical and physical stability”.
As to `C[C@H]1CC2(CCN(c3ccc(C(=O)N4CCC(CN5CCN(c6cccc(N[C@H]7CCC(=O)NC7=O)c6)CC5)CC4)cc3F)CC2)CN1c1ccc(C#N)c(Cl)c1` [crystal form A of D-mandelate], the “crystal form before and after DVS testing” value (XRPD) is “the crystal form did not change before and after DVS testing”. Also, the “desorption versus adsorption process” value (humidity 0% to 95% RH) is reported as “the desorption process of the sample overlapped with its adsorption process”. Besides, in series [2] (long-term accelerated conditions for 6 months, listed as crystal form A of mandelate), the “stability (in words)” value was “good chemical and physical stability”.

The record behind these values is US20260317325A1, “AMORPHOUS SUBSTANCE AND CRYSTAL OF DIOXOPIPERIDINE COMPOUND OR PHARMACEUTICALLY ACCEPTABLE SALT THEREOF, PREPARATION METHOD, AND USE” (JIANGSU HENGRUI PHARMACEUTICALS CO., LTD., priority 2023, published 2026).
